Measurements reported in patent EP4778516A1, “CALCIFICATION ENHANCER FOR OSTEOBLAST MC3T3-E1 CELL” (Watanabe Oyster Laboratory Co., Ltd., priority 2023, dated 2025).

System: MC3T3-E1 cells
Assay: Cell proliferation assay (cell counting)
Format: cell-based, mouse
Procedure: To examine progression of cell proliferation, MC3T3-E1 cells (1×10^5/ml medium per well) were cultured using a 24-well plate in a-MEM supplemented with 10% FBS and 1% P/S at 37°C in a water-saturated atmosphere containing 5% CO2 and 95% air. The cells were cultured for 1, 2, 3, 4, or 5 days in the presence of a vehicle (1% ethanol as final concentration) or DHMBA (10 mM). In another experiment, to evaluate the effects of increased concentrations of DHMBA on MC3T3-E1 cells, the cells (1×10^5/ml per well) were cultured using a 24-well plate in DMEM (containing 10% FBS and 1% P/S). The cells were cultured for 3 days in the presence of either a reagent vehicle (1% ethanol as final concentration) or DHMBA (0.1, 1, 10, 100, or 1000 mM).
To evaluate the effects of DHMBA on cell death of osteoblasts MC3T3-E1, the cells (1×10^5/ml medium per well in a 24-well plate) were cultured in a-MEM containing 10% FBS and 1% P/S. After culturing for 3 days until reaching subconfluence, either a reagent vehicle (1% ethanol as final concentration) or DHMBA (0.1, 1, 10, 100, or 1000 mM) was added, and the cells were further cultured for 48 hours. After culture, to count the number of cells attached to each well, a […] containing 0.05% trypsin and EDTA (0.1 ml per well) was added, and then the culture plates were incubated at 37°C for 2 minutes. Subsequently, a-MEM (0.9 ml) containing 10% FBS and 1% P/S was added, and the cells were detached and mixed by pipetting. The cell suspension (0.1 ml) was mixed with 0.1 ml of 0.5% trypan blue staining solution. By this staining, […]. Viable cells were counted under a microscope (Olympus MTV-3) using a hemocytometer (Sigma-Aldrich, St. Louis, MO) and a cell counter (H-102P, Line Seiki Co., Ltd., Tokyo, Japan), and the average of two counts was calculated. Cell numbers were expressed as the number per well.

**Q.** `COc1c(O)cc(CO)cc1O` [DHMBA, 3,5-dihydroxy-4-methoxybenzyl alcohol] was tested. Which “proliferation of MC3T3-E1 cells” value (DHMBA 10 mM, cultured 1, 2, 3, 4, or 5 days, vs vehicle (1% ethanol), Fig. 1A) did it give?
**A.** no significant change

**Q.** What about the “proliferation of MC3T3-E1 cells” value (DHMBA 0.1, 1, 10, or 100 mM, 3 days, Fig. 1B) of the same compound?
**A.** not changed

**Q.** What about the cell proliferation (DHMBA 1000 mM (highest concentration tested), 3 days, Fig. 1B) of the same compound?
**A.** significant decrease

**Q.** And the “TNF-a-induced inhibition of cell proliferation” value (TNF-a 1 or 10 ng/ml plus DHMBA 1 or 10 mM, 3 days, Fig. 3A)?
**A.** suppressed
